Laboratory results as given in patent US10206394B2, “Herbicidal compounds” (Syngenta Participations AG, priority 2014, dated 2019).
Where two headings read alike, the source gives them in different places.

What was measured:
Type in all cases: in vivo
Avena fatua (AVEFA) = experiment: Glasshouse assay for herbicidal activity (pre- and post-emergence), percentage phytotoxicity; details: Avena fatua, Rate 250 g/ha, 100%=total damage, 0%=no damage
In short: (§1)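 Herbicide was applied to potted plants sown in standard soil, one day after sowing for PRE and after about 12 days for POST. Visual percentage damage ratings followed at 15 DAA (POST) and 20 DAA (PRE).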

Lolium perenne (LOLPE) = experiment: as above; details: Lolium perenne, Rate 250 g/ha, 100%=total damage, 0%=no damage
In short: as §1

[1] = tested on: Echinochloa crus-galli (ECHCG); experiment: as above; details: Echinochloa crus-galli, Rate 250 g/ha, 100%=total damage, 0%=no damage
In short: as §1

[2] = tested on: Alopecurus myosuroides (ALOMY); experiment: as above; details: Alopecurus myosuroides, Rate 250 g/ha, 100%=total damage, 0%=no damage
In short: as §1

[3] = tested on: Winter Wheat variety 'Hereward'; experiment: Glasshouse assay for crop safety, post-emergence, +/- safener cloquintocet-mexyl (CQC), percentage phytotoxicity; details: 250 g/ha, evaluated after 13 days, 100=total damage, 0=no damage; for Post-emergence Crop Selectivity, percentage phytotoxicity, Wheat +CQC: with safener cloquintocet-mexyl (CQC) seed treatment 0.5 g/kg seed; for Post-emergence Crop Selectivity, percentage phytotoxicity, Wheat − CQC: without safener cloquintocet-mexyl (CQC)
Description: Test—Glasshouse Assay for Crop Safety.
Seeds of the Winter Wheat variety ‘Hereward’ were seed treated with a wettable powder formulation of the cereal herbicide safener, cloquintocet mexyl, at a rate of 0.5 grams per kilogram of dry seed prior to the initiation of glasshouse testing. Three seeds were sown per 1.5 inch plastic pot into a sandy loam soil at a depth of 1 cm, 8 days prior to application of the test compounds and was watered and grown under controlled conditions in a glasshouse (at 24/16° C., day/night; 14 hours light; 65% humidity). The plants were sprayed Post-emergence with an aqueous spray solution derived from the formulation of the technical active ingredient in acetone/water (50:50) solution containing 0.5% Tween 20 (polyoxyethelyene sorbitan monolaurate, CAS RN 9005-64-5).
The test plants were then grown in a glasshouse under controlled conditions (at 24/16° C., day/night; 14 hours light; 65% humidity) and watered twice daily. After 13 days for pre and post-emergence, the test was evaluated (100=total damage to plant; 0=no damage to plant).

[4] = post-emergence, 360 h, post-emergence, assessed visually 15 DAA, read-out: Post-emergence herbicidal activity (percentage phytotoxicity) AVEFA POST
[5] = pre-emergence, 480 h, pre-emergence, assessed visually 20 DAA, read-out: Pre-emergence herbicidal activity (percentage phytotoxicity) AVEFA PRE
[6] = post-emergence, 360 h, post-emergence, assessed visually 15 DAA, read-out: Post-emergence herbicidal activity (percentage phytotoxicity) LOLPE POST
[7] = pre-emergence, 480 h, pre-emergence, assessed visually 20 DAA, read-out: Pre-emergence herbicidal activity (percentage phytotoxicity) LOLPE PRE
[8] = post-emergence, 360 h, post-emergence, assessed visually 15 DAA, read-out: Post-emergence herbicidal activity (percentage phytotoxicity) ECHCG POST
[9] = pre-emergence, 480 h, pre-emergence, assessed visually 20 DAA, read-out: Pre-emergence herbicidal activity (percentage phytotoxicity) ECHCG PRE
[10] = post-emergence, 360 h, post-emergence, assessed visually 15 DAA, read-out: Post-emergence herbicidal activity (percentage phytotoxicity) ALOMY POST
[11] = pre-emergence, 480 h, pre-emergence, assessed visually 20 DAA, read-out: Pre-emergence herbicidal activity (percentage phytotoxicity) ALOMY PRE

Row | Structure (SMILES) | pest or weed control at 250 g/ha (Avena fatua (AVEFA); [4]) [%] | pest or weed control at 250 g/ha (Avena fatua (AVEFA); [5]) [%] | pest or weed control at 250 g/ha (Lolium perenne (LOLPE); [6]) [%] | pest or weed control at 250 g/ha (Lolium perenne (LOLPE); [7]) [%] | pest or weed control at 250 g/ha [1, 8] [%] | pest or weed control at 250 g/ha [1, 9] [%] | pest or weed control at 250 g/ha [2, 10] [%] | pest or weed control at 250 g/ha [2, 11] [%] | Post-emergence Crop Selectivity, percentage phytotoxicity, Wheat +CQC [3] [%] | Post-emergence Crop Selectivity, percentage phytotoxicity, Wheat − CQC [3] [%]
1 | CCCCNC(=O)CC1CC(=O)C(c2c(C)cc(C)cc2C)C1=O (stereo not drawn) [Compound A12] | 80 | 70 | 90 | 100 | 80 | 100 | 100 | 90 | 0 | 70
2 | Cc1cc(C)c(C2C(=O)CC(CC(=O)NCC(C)(C)C)C2=O)c(C)c1 (stereo not drawn) [Compound A14] | 70 | 70 | 80 | 80 | 80 | 100 | 80 | 90 | 10 | 60
3 | Cc1cc(C)c(C2C(=O)CC(CC(=O)NC3CC3)C2=O)c(C)c1 (stereo not drawn) [Compound A15] | 80 | 50 | 100 | 100 | 100 | 100 | 80 | 80 | 20 | 20
4 | COCC(C)NC(=O)CC1CC(=O)C(c2c(C)cc(C)cc2C)C1=O (stereo not drawn) [Compound A16] | 90 | 90 | 80 | 80 | 100 | 100 | 90 | 90 | 30 | 80
5 | Cc1cc(C)c(C2C(=O)CC(CC(=O)NC3(c4ccccn4)CC3)C2=O)c(C)c1 (stereo not drawn) [Compound A18] | 50 | 20 | 80 | 60 | 70 | 60 | 70 | 60 | 20 | 70
6 | Cc1cc(C)c(C2C(=O)CC(CC(=O)NCC3CC3)C2=O)c(C)c1 (stereo not drawn) [Compound A19] | 80 | 70 | 90 | 90 | 80 | 90 | 90 | 90 | 40 | 80
7 | CCNC(=O)CC1CC(=O)C(c2c(C)cc(C)cc2C)C1=O (stereo not drawn) [Compound A20] | 80 | 70 | 100 | 100 | 100 | 100 | 80 | 70 | 20 | 40
8 | Cc1cc(C)c(C2C(=O)CC(CC(=O)NC3CCCC3)C2=O)c(C)c1 (stereo not drawn) [Compound A21] | 70 | 50 | 80 | 80 | 80 | 80 | 80 | 70 | 0 | 60
9 | Cc1cc(C)c(C2C(=O)CC(CC(=O)N3CCCCC3)C2=O)c(C)c1 (stereo not drawn) [Compound A22] | 60 | 30 | 80 | 70 | 90 | 100 | 80 | 60 | 50 | 60
10 | CCCN(C)C(=O)CC1CC(=O)C(c2c(C)cc(C)cc2C)C1=O (stereo not drawn) [Compound A25] | 70 | 70 | 90 | 90 | 90 | 80 | 70 | 70 | 0 | 40
11 | CCCNC(=O)CC1CC(=O)C(c2c(C)cc(C)cc2C)C1=O (stereo not drawn) [Compound A26] | 80 | 70 | 90 | 100 | 80 | 80 | 80 | 80 | 40 | 70
12 | CCC(C)(C)NC(=O)CC1CC(=O)C(c2c(C)cc(C)cc2C)C1=O (stereo not drawn) [Compound A27] | 80 | 70 | 80 | 80 | 80 | 80 | 80 | 70 | 20 | 30
13 | Cc1cc(-c2ncc(Cl)cc2F)cc(C)c1C1C(=O)CC(CC(=O)NC(C)(C)C)C1=O (stereo not drawn) [Compound A39, N-tert-butyl-2-[3-[4-(5-chloro-3-fluoro-2-pyridyl)-2,6-dimethyl-phenyl]-2,4-dioxo-cyclopentyl]acetamide] | 100 | 100 | 100 | 100 | 100 | 100 | 100 | 100 | 50 | 80
14 | C#Cc1cc(C)c(C2C(=O)CC(CC(=O)NC(C)(C)C)C2=O)c(C)c1 (stereo not drawn) [Compound A43] | 90 | 100 | 90 | 100 | 90 | 100 | 100 | 100 | 50 | 90
15 | CC#Cc1cc(C)c(C2C(=O)CC(CC(=O)NCC(=O)C(C)(C)C)C2=O)c(C)c1 (stereo not drawn) [Compound A59] | 90 | 70 | 70 | 70 | 90 | 90 | 90 | 100 | 50 | 80
